Legend:
Type in all cases: biochemical
c-Src = biological target: T1, c-Src (Homo sapiens, UniProt P12931); assay: c-Src kinase assay, 32P incorporation into polyglutamate-tyrosine; conditions: 5 μM ATP
T1 construct: made in house; host or cells: baculovirus infected insect cells
Method: (§1) Other Kinases. c-Src kinase is purified from baculovirus infected insect cell lysates using an antipeptide monoclonal antibody directed against the N-terminal 2-17 amino acids as described previously by Fry, et al., Anticancer Drug Design, 1994;9:331-351. Protein kinase C (PKC.) is obtained as a rat brain preparation from Promega.
c-Src. The antibody, covalently linked to 0.65-μm latex beads, is added to a suspension of insect cell lysis buffer comprised of 150 mM NaCl, 50 mM Tris pH 7.5, 1 mM DTT, 1% NP-40, 2 mM EGTA, 1 mM sodium vanadate, 1 mM PMSF, 1 μg/mL each of leupeptin, pepstatin, and aprotinin. Insect cell lysate containing the c-Src protein is incubated with these beads for 3 to 4 hours at 4° C. with rotation. At the end of the lysate incubation, the beads are rinsed three times in lysis buffer, resuspended in lysis buffer containing 10% glycerol, and frozen. These latex beads are thawed, rinsed three times in assay buffer which is comprised of 40 mM tris pH 7.5, 5 mM magnesium chloride, and suspended in the same buffer. In a Millipore 96-well plate with a 0.65 μm polyvinylidine membrane bottom are added the reaction components: 10-μL c-Src beads, 10 μL of 2.5 mg/mL polyglutamate-tyrosine substrate, 5 μM ATP containing 0.2 μCi labeled ^32 P-ATP, 5 μL DMSO containing inhibitors or as a solvent control, and buffer to make the final volume 125 μL. The reaction is started at room temperature by addition of the ATP and quenched 10 minutes later by the addition of 125 μL of 30% TCA, 0.1 M sodium pyrophosphate for 15 minutes on ice. The plate is then filtered and the wells washed with two 250-μL aliquots of 15% TCA, 0.1 M pyrophosphate. The filters are punched, counted in a liquid scintillation counter, and the data examined for inhibitory activity in comparison to a known inhibitor such as erbstatin. The method is described more fully in J. Med. Chem., 1994;37:598-609.

[1] = biological target: T2, PDGFr (mouse PDGF-β receptor tyrosine kinase) (Mus musculus, UniProt P05622); assay: PDGFr tyrosine kinase assay, 32P incorporation into glutamate-tyrosine copolymer; conditions: 50 μM ATP
T2 construct: PCR primers are designed to amplify a fragment of DNA that codes for the intracellular tyrosine kinase domain; made in house; host or cells: Sf9 insect cells (baculovirus), cell lysate
T2 sequence (P05622 599-961 limits assumed): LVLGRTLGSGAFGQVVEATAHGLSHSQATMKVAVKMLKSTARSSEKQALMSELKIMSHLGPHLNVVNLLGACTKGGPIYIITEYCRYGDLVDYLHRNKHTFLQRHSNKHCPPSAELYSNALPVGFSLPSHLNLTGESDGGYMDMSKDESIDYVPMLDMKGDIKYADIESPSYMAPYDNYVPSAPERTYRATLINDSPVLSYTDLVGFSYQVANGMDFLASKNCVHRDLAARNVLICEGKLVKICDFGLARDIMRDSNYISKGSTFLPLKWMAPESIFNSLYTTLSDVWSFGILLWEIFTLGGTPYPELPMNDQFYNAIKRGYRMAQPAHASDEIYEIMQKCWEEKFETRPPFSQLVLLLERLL
Method: (§2) Platelet Derived Growth Factor Receptor (PDGFr) and Fibroblast Growth Factor Receptor (FGFr). Full length cDNAs for the mouse PDGF-β and human FGF-1 (flg) receptor tyrosine kinases were obtained from J. Escobedo and are prepared as described in J. Biol. Chem., 1991;262:1482-1487. PCR primers are designed to amplify a fragment of DNA that codes for the intracellular tyrosine kinase domain. The fragment is melded into a baculovirus vector, cotransfected with AcMNPV DNA, and the recombinant virus isolated. SF9 insect cells are infected with the virus to overexpress the protein, and the cell lysate is used for the assay.
(§3) PDGFr and FGFr. […] Briefly, to each well is added 82.5 μL of incubation buffer containing 25 mM Hepes (pH 7.0), 150 mM NaCl, 0.1% Triton X-100, 0.2 mM PMSF, 0.2 mM sodium vanadate, 10 mM manganese chloride, and 750 μg/mL of poly (4:1) glutamate-tyrosine followed by 2.5 μL of inhibitor and 5 μL of enzyme lysate (7.5 μg/μL FGFR-TK or 6.0 μg/μL PDGFR-TK) to initiate the reaction. Following a 10 minute incubation at 25° C., 10 μL of [γ^32 P]ATP (0.4 μCi plus 50 μM ATP) is added to each well, and samples are incubated for an additional 10 minutes at 25° C. The reaction is terminated by the addition of 100 μL of 30% trichloroacetic acid (TCA) containing 20 mM sodium pyrophosphate and precipitation of material onto glass fiber filter mats (Wallac). […] Nonspecific activity is defined as radioactivity retained on the filters following incubation of samples with buffer alone; (no enzyme). Specific enzymatic activity is defined as total activity (enzyme plus buffer) minus nonspecific activity.

[2] = biological target: T3, EGFr (Human EGF receptor tyrosine kinase) (Homo sapiens, UniProt P00533); assay: EGFr tyrosine kinase assay; conditions: 10 μM ATP
T3 construct: Human EGF receptor tyrosine kinase is isolated from A431 human epidermoid carcinoma cells; endogenous in cells; host or cells: A431 human epidermoid carcinoma cells (detergent lysate, Q Sepharose fractions)
T3 sequence (P00533 25-1210): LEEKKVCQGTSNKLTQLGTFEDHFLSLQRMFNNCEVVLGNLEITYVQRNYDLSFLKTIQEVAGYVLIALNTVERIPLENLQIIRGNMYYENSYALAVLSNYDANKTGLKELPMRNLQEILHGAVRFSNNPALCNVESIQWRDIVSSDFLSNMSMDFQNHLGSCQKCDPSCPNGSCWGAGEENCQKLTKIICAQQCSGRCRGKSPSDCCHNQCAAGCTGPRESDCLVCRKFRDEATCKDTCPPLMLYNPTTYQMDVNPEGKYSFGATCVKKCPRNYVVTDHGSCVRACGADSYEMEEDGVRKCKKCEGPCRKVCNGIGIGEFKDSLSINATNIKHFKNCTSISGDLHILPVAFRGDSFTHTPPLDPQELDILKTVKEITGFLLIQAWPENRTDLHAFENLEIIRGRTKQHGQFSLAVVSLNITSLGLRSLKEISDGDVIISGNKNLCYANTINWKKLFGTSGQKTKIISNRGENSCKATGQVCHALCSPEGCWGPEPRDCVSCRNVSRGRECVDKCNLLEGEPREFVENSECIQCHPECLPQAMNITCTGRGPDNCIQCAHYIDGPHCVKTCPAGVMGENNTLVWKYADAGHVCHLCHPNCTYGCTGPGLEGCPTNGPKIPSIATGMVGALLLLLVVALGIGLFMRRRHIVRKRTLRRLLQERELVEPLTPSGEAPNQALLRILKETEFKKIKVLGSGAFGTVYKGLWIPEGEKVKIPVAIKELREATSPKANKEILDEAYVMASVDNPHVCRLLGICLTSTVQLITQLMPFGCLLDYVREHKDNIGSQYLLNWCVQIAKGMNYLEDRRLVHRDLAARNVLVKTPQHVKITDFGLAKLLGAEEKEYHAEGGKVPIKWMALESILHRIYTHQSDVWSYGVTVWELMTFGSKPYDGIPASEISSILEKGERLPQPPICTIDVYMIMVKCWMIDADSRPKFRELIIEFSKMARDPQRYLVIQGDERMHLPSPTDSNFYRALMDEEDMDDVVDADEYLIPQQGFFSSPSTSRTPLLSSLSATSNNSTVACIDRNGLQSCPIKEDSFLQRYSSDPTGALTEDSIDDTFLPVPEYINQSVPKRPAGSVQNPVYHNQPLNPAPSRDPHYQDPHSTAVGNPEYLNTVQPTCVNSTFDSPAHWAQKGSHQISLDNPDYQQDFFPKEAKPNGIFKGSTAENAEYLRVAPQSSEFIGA
Method: Epidermal Growth Factor Receptor (EGFr). Human EGF receptor tyrosine kinase is isolated from A431 human epidermoid carcinoma cells by the following method. Cells were grown in roller bottles in 50% Dulbecco's Modified Eagle medium and 50% HAM F-12 nutrient media (Gibco) containing 10% fetal calf serum. Approximately 10^9 cells are lysed in two volumes of buffer containing 20 mM 2-(4N-[2-[…]]piperazin-1-yl)ethanesulfonic acid (Hepes), pH 7.4, 5 mM ethylene glycol bis(2-aminoethyl ether) N,N,N',N'-tetraacetic acid (EGTA), 1% Triton X-100, 10% glycerol, 0.1 mM sodium orthovanadate, 5 mM sodium fluoride, 4 mM pyrophosphate, 4 mM benzamide, 1 mM dithiothreitol (DTT), 80 μg/mL aprotinin, 40 μg/mL leupeptin, and 1 mM phenylmethylsulfonyl fluoride (PMSF). After centrifugation at 25,000×g for 10 minutes, the supernatant is applied to a fast Q sepharose column (Pharmacia) and eluted with a linear gradient from 0.1 M NaCl to 0.4 M NaCl in 50 mM Hepes, 10% glycerol, pH 7.4. Enzyme active fractions are pooled, divided into aliquots, and stored at -100° C.
EGFr. Enzyme assays for IC50 determinations are performed in 96-well filter plates (Millipore MADVN6550). The total volume is 0.1 mL containing 20 mM Hepes, pH 7.4, 50 μM sodium vanadate, 40 mM magnesium chloride, 10 μM ATP containing 0.5 μCi of [^32 P]ATP, 20 μg of polyglutamic acid/tyrosine (Sigma Chemical Co., St. Louis, Mo.), 10 ng of EGF receptor tyrosine kinase and appropriate dilutions of inhibitor. All components except the ATP are added to the well, and the plate is incubated with shaking for 10 minutes at 25° C. The reaction is started by adding [^32 P]ATP, and the plate is incubated at 25° C. for 10 minutes. The reaction is terminated by addition of 0.1 mL of 20% trichloroacetic acid (TCA). The plate is kept at 4° C. for at least 15 minutes to allow the substrate to precipitate. The wells are then washed five times with 0.2 mL of 10% TCA, and ^32 P incorporation is determined with a Wallac beta plate counter.

Protein kinase C (PKC) = Protein kinase C (PKC) assay; conditions: rat brain preparation
Method: as §1
Other Kinases. An assay using the intracellular kinase domains of insulin receptor (INSr) is performed as described for the EGF receptor except that 10 mM manganese chloride is included in the reaction. The PKC assay is performed as previously described by Martiny-Baron, et al., J. Biol. Chem., 1993;268:9194-9197.

[3] = biological target: T4, FGFr (human FGF-1 (flg) receptor tyrosine kinase) (Homo sapiens, UniProt P11362); assay: FGFr tyrosine kinase assay, 32P incorporation into glutamate-tyrosine copolymer; conditions: 50 μM ATP; read-out: FGFr IC50
T4 construct: PCR primers are designed to amplify a fragment of DNA that codes for the intracellular tyrosine kinase domain; made in house; host or cells: Sf9 insect cells (baculovirus), cell lysate
T4 sequence (P11362 478-767 limits assumed): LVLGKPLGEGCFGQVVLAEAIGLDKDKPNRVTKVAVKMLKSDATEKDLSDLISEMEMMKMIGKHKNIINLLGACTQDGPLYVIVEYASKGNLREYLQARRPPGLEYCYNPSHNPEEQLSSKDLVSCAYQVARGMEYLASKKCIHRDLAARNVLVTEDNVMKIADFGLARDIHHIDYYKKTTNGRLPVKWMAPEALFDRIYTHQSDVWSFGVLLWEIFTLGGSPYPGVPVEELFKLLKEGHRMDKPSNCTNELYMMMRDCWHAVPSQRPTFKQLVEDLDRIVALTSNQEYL
Method: as §2, §3

T1 sequence (P12931 whole entry, species assumed): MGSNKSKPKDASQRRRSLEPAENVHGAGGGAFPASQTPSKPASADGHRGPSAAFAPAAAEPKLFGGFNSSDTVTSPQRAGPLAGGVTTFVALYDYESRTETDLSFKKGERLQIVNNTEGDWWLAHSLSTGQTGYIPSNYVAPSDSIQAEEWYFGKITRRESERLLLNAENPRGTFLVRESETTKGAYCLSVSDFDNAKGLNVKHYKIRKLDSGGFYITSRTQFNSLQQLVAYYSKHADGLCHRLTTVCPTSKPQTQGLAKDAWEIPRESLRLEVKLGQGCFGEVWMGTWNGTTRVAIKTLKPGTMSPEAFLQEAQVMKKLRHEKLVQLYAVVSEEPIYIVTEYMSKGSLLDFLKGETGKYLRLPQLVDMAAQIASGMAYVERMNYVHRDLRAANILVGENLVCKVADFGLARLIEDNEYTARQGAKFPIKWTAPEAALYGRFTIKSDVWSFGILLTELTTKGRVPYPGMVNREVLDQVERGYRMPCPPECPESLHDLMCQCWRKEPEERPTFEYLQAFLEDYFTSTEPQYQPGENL

Structure (SMILES)	IC50 (c-Src) [nM]	IC50 [1] [nM]	IC50 [2] [µM]	IC50 (Protein kinase C (PKC)) [µM]	IC50 [3] [nM]
Cn1c(=O)c(-c2c(Cl)cccc2Cl)cc2cnc(NCCCN3CCOCC3)cc21 [Example K, 3-(2,6-dichlorophenyl)-1-methyl-7-[3-(4-morpholino)propylamino]-1H-[1,6]naphthyridin-2-one]	360	4700	< 50	> 50	
CCN(CC)CCCNc1cc2c(cn1)cc(-c1c(Cl)cccc1Cl)c(=O)n2C [Example E, 3-(2,6-dichlorophenyl)-7-[3-(diethylamino)propylamino]-1-methyl-1H-[1,6]naphthyridin-2-one]	300	4000			220
CCN(CC)CCNc1cc2c(cn1)cc(-c1c(Cl)cccc1Cl)c(=O)n2C [Example D, 3-(2,6-dichlorophenyl)-7-[2-(diethylamino)ethylamino]-1-methyl-1H-[1,6]naphthyridin-2-one]	13000	16000			3700
Cn1c(=O)c(-c2c(Cl)cccc2Cl)cc2cnc(NCCCCN3CCOCC3)cc21 [Example Q, 3-(2,6-dichlorophenyl)-1-methyl-7-[4-(4-morpholino)butylamino]-1H-[1,6]naphthyridin-2-one]	50	3100			
Cn1c(=O)c(-c2c(Cl)cccc2Cl)cc2cnc(N)cc21 [Example A, 7-amino-3-(2,6-dichlorophenyl)-1-methyl-1H-[1,6]naphthyridin-2-one]	350	2500		50	280
CNc1cc2c(cn1)cc(-c1c(Cl)cccc1Cl)c(=O)n2C [Example B, 3-(2,6-dichlorophenyl)-1-methyl-7-methylamino-1H-[1,6]naphthyridin-2-one]	420	3600			340
CN1CCN(c2ccc(Nc3cc4c(cn3)cc(-c3c(Cl)cccc3Cl)c(=O)n4C)cc2)CC1 [Example U, 3-(2,6-dichlorophenyl)-1-methyl-7-[(4-(4-methylpiperazin-1-yl)phenyl)amino]-1H-[1,6]naphthyridin-2-one]	20	260			
CN1CCN(CCCCCNc2cc3c(cn2)cc(-c2c(Cl)cccc2Cl)c(=O)n3C)CC1 [Example J, 3-(2,6-dichlorophenyl)-1-methyl-7-[5-(4-methylpiperazin-1-yl)pentylamino]-1H-[1,6]naphthyridin-2-one]	30	850			
Cn1c(=O)c(-c2c(Cl)cccc2Cl)cc2cnc(Nc3ccccc3)cc21 [Example M, 3-(2,6-dichlorophenyl)-1-methyl-7-(phenylamino)-1H-[1,6]naphthyridin-2-one]	790	1000	< 50	> 50	1300
CN1CCN(CCCCNc2cc3c(cn2)cc(-c2c(Cl)cccc2Cl)c(=O)n3C)CC1 [Example I, 3-(2,6-dichlorophenyl)-1-methyl-7-[4-(4-methylpiperazin-1-yl)butylamino]-1H-[1,6]naphthyridin-2-one]	40	950			
CN1CCN(CCCOc2ccc(Nc3cc4c(cn3)cc(-c3c(Cl)cccc3Cl)c(=O)n4C)cc2)CC1 [Example T, 3-(2,6-dichlorophenyl)-1-methyl-7-[(4-(3-(4-methylpiperazin-1-yl)propoxy)phenyl)amino]-1H-[1,6]naphthyridin-2-one]	30	370			
Cn1c(=O)c(-c2c(Cl)cccc2Cl)cc2cnc(Nc3ccncc3)cc21 [Example N, 3-(2,6-dichlorophenyl)-1-methyl-7-(4-pyridylamino)-1H-[1,6]naphthyridin-2-one]	550	9600			3300
CCN(CC)CCCOc1ccc(Nc2cc3c(cn2)cc(-c2c(Cl)cccc2Cl)c(=O)n3C)cc1 [Example R, 3-(2,6-dichlorophenyl)-7-[(4-(3-(diethylamino)propoxy)phenyl)amino]-1-methyl-1H-[1,6]naphthyridin-2-one]	30	370			180
Cn1c(=O)c(-c2c(Cl)cccc2Cl)cc2cnc(NCCCn3ccnc3)cc21 [Example L, 3-(2,6-dichlorophenyl)-7-[3-(imidazol-1-yl)propylamino]-1-methyl-1H-[1,6]naphthyridin-2-one]	540	1700			
CCN(CC)CCCCCNc1cc2c(cn1)cc(-c1c(Cl)cccc1Cl)c(=O)n2C [Example G, 3-(2,6-dichlorophenyl)-7-[5-(diethylamino)pentylamino]-1-methyl-1H-[1,6]naphthyridin-2-one]	20	690			70
COc1ccc(Nc2cc3c(cn2)cc(-c2c(Cl)cccc2Cl)c(=O)n3C)cc1 [Example O, 3-(2,6-dichlorophenyl)-7-[(4-methoxyphenyl)amino]-1-methyl-1H-[1,6]naphthyridin-2-one]	1700	1700			1200
